Laboratory results taken from ChEMBL document CHEMBL5244234, “Janus kinases (JAKs): The efficient therapeutic targets for autoimmune diseases and myeloproliferative disorders” (Eur J Med Chem, 2020).

Legend:
[1] = target: Proto-oncogene tyrosine-protein kinase receptor Ret (Homo sapiens, UniProt P07949); assay: Inhibition of RET (unknown origin)
U-266 = assay: Antiproliferative activity against human U266B1 cells assessed as inhibition of cell proliferation; type: functional, cell-based
[2] = target: Signal transducer and activator of transcription 3 (Homo sapiens, UniProt P40763); assay: Inhibition of IL6-stimulated STAT3 signalling in human CD4+ T cells; type: cell-based, T cell
[3] = target: T1, Tyrosine-protein kinase JAK2 (Homo sapiens, UniProt O60674); assay: Inhibition of JAK2 (unknown origin) by Lanthascreen kinase assay
T1 sequence (O60674 whole entry): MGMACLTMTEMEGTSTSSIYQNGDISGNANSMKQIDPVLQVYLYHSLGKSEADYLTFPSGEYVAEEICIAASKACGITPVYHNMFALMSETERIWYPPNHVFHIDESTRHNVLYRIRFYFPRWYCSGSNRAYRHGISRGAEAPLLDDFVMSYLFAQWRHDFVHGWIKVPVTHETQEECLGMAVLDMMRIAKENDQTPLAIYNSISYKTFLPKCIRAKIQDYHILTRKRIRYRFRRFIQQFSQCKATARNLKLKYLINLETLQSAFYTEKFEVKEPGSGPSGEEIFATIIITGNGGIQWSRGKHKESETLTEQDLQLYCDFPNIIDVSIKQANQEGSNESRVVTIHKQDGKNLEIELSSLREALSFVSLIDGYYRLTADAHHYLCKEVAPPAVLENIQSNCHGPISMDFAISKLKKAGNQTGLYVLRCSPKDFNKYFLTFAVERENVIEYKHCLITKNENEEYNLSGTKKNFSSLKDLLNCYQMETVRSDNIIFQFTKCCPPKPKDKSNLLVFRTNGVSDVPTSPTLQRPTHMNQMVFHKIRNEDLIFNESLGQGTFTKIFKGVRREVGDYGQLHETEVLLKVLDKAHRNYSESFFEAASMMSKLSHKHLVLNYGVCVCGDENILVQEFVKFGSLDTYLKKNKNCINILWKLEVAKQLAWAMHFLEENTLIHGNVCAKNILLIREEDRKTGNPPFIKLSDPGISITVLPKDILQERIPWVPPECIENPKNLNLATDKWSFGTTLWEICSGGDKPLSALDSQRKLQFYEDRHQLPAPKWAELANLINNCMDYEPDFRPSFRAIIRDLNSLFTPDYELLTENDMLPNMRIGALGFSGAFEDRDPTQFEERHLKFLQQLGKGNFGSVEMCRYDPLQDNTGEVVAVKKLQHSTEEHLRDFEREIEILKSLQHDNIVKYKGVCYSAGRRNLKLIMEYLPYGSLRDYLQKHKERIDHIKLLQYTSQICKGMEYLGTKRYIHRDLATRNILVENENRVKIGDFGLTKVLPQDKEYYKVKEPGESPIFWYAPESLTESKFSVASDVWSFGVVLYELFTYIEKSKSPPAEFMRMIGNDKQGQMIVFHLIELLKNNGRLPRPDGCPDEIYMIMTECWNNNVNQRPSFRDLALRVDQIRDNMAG

[4] = target: T2, Tyrosine-protein kinase JAK3 (Homo sapiens, UniProt P52333); assay: Inhibition of JAK3 (unknown origin) by Lanthascreen kinase assay
T2 sequence (P52333 whole entry): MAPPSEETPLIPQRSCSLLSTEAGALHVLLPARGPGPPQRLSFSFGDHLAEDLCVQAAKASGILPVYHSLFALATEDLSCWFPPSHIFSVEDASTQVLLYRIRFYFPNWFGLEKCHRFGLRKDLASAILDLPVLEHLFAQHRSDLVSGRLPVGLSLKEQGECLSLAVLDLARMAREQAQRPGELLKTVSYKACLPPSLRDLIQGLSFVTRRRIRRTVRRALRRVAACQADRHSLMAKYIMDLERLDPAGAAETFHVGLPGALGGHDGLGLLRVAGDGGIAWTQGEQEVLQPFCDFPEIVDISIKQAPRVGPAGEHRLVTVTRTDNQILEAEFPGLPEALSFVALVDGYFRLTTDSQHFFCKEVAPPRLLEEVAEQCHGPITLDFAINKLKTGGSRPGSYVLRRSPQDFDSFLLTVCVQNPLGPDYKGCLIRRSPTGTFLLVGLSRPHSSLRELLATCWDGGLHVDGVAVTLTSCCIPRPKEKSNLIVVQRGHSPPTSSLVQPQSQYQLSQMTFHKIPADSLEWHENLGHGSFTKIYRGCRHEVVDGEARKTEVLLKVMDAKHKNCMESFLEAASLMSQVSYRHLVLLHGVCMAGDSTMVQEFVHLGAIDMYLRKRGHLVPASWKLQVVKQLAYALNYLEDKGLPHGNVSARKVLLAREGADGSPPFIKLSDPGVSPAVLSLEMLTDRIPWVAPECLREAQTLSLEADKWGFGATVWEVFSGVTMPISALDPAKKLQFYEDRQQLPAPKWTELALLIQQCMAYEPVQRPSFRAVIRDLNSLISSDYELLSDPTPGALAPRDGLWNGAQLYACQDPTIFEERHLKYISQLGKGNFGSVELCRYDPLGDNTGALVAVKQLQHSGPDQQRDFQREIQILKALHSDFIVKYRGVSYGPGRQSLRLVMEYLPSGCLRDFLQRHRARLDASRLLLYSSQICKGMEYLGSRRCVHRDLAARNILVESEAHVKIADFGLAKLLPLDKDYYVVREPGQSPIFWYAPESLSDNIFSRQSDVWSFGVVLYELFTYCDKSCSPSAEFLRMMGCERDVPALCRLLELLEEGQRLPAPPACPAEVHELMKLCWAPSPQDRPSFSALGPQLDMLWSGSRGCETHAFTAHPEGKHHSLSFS

HCT-116 [5] = assay: Antitumor activity against human HCT-116 cells xenografted in Balb/c mouse assessed as tumor growth inhibition at 15 mg/kg relative to control; type: functional; details: read-out: TGI
HCT-116 [6] = assay: Antitumor activity against human HCT-116 cells xenografted in Balb/c mouse assessed as tumor growth inhibition at 20 mg/kg relative to control; type: functional; details: read-out: TGI
[7] = target: T1, Tyrosine-protein kinase JAK2; assay: Competitive inhibition of JAK2 (unknown origin) in the presence of ATP
[8] = target: T3, Tyrosine-protein kinase JAK1 (Homo sapiens, UniProt P23458); assay: Competitive inhibition of JAK1 (unknown origin) in the presence of ATP
T3 sequence (P23458 whole entry): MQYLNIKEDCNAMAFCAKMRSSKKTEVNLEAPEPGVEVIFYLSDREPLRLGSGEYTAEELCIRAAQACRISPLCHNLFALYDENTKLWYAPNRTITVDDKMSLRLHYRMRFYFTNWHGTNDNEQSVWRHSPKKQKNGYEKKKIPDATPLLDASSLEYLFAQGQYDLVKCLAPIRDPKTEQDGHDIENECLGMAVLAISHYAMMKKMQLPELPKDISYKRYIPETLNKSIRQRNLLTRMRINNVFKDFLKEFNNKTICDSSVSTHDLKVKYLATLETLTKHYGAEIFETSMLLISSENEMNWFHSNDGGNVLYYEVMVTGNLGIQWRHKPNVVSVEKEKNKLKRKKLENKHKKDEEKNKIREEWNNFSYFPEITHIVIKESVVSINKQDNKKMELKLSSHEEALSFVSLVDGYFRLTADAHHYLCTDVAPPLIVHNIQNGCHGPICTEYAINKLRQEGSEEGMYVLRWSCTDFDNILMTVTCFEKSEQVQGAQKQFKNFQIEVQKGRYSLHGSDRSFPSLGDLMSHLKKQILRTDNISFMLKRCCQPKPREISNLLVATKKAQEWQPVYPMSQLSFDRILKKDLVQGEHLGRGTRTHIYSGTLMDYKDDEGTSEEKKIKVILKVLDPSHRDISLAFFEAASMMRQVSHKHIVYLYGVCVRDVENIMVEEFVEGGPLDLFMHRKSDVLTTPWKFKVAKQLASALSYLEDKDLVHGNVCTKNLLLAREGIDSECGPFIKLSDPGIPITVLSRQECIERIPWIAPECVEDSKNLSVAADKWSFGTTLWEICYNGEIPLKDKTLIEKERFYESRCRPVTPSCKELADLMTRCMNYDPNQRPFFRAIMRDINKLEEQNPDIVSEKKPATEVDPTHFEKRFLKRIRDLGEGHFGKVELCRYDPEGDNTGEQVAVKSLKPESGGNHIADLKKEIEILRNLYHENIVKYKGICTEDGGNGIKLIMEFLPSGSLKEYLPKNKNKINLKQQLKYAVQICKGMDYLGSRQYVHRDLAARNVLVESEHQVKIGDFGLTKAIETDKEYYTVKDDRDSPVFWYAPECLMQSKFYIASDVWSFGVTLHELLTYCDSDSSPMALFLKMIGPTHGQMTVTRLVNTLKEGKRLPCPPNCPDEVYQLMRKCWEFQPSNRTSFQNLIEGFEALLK

Rattus norvegicus [9] = assay: Antiarthritic activity in CFA-induced Lewis rat assessed as increase in hind paw volume at 3 to 10 mg/kg administered for 2 weeks by plethysmometer relative to control; type: functional; details: dose 3-10 mg/kg
Rattus norvegicus [10] = assay: Antiarthritic activity in CFA-induced Lewis rat assessed as increase in hind paw volume at 1 mg/kg administered for 2 weeks by plethysmometer relative to control; type: functional
[11] = Inhibition of T cell proliferation in CBA mouse spleenocytes by MLR assay; type: toxicity, cell-based; details: Splenocyte
[12] = Inhibition of T cell proliferation in Balb/c mouse spleenocytes by MLR assay; type: toxicity, cell-based; details: Splenocyte
[13] = Inhibition of IL-2 stimulated human T cell proliferation; type: toxicity, cell-based
B cell = assay: Inhibition of cell proliferation in CD40L/IL-4-induced human B cells; type: toxicity, cell-based
[14] = target: T3, Tyrosine-protein kinase JAK1; assay: Inhibition of JAK1 (unknown origin) assessed as inhibition constant
[15] = Inhibition of STAT5 phosphorylation in IL-2 stimulated mouse HT-2 cells; type: cell-based; details: HT2
BaF3 [16] = assay: Antiproliferative activity against mouse BaF3 cells harboring JAK2 V617F mutant assessed as inhibition of cell proliferation incubated for 72 hrs by XTT assay; type: toxicity, cell-based; details: BaF3, 72 h
HEL = assay: cells; details: Homo sapiens, 72 h
[17] = Antiproliferative activity against mouse BaF3 cells assessed as inhibition of cell proliferation incubated for 72 hrs by XTT assay; type: toxicity, cell-based
[18] = target: Tyrosine-protein kinase JAK2 (Mus musculus, UniProt Q62120); assay: Inhibition of IL-3 stimulated wild type JAK2-mediated signalling in mouse BaF3 cells preincubated with compound for 5 hrs followed by IL-3 stimulation and measured after 20 mins by Alphascreen SureFire assay; type: cell-based
BaF3 [19] = assay: Inhibition of cell proliferation in IL-3 stimulated mouse BaF3 cells expressing wild-type JAK2; type: toxicity, cell-based
[20] = Inhibition of STAT5 phosphorylation in mouse BaF3 cells expressing JAK2 V617F mutant incubated for 5 hrs by Alphascreen SureFire assay; type: cell-based; details: BaF3, 5 h
BaF3 [21] = assay: Inhibition of cell proliferation in mouse BaF3 cells expressing JAK2 V617F mutant; type: toxicity, cell-based
[22] = target: T4, Non-receptor tyrosine-protein kinase TYK2 (Homo sapiens, UniProt P29597); assay: Inhibition of TYK2 (unknown origin)
T4 sequence (P29597 whole entry): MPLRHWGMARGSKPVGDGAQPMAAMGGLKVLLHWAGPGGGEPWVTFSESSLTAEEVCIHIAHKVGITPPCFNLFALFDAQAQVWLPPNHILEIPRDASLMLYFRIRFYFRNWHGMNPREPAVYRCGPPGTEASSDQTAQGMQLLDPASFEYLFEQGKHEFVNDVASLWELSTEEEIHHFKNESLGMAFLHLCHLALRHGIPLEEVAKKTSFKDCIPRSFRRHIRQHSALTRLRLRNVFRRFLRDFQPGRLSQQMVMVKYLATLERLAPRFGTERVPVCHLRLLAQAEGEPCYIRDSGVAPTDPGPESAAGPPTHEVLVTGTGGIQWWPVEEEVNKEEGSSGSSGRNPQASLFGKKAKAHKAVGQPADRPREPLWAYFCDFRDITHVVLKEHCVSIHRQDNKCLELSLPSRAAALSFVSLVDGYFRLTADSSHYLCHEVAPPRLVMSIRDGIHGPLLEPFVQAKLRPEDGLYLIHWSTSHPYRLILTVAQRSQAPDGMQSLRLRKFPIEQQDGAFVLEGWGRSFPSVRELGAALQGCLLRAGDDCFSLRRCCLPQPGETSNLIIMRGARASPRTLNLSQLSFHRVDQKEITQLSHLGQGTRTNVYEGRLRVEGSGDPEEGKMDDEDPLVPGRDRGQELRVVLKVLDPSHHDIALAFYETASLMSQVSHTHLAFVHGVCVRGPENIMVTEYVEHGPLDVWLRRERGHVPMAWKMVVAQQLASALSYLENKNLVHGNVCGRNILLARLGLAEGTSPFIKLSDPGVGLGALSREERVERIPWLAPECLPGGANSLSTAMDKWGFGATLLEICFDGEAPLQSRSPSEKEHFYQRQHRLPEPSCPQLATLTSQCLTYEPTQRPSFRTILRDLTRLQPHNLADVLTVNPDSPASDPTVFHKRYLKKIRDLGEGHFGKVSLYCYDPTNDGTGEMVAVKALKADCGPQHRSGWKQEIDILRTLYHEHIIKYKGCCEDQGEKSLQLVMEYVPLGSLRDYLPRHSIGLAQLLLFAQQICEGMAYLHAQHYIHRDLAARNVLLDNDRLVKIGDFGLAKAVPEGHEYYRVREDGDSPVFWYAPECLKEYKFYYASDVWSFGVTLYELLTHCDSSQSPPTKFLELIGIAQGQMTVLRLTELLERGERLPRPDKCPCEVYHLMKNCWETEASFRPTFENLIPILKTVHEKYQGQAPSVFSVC

[23] = target: T2, Tyrosine-protein kinase JAK3; assay: Inhibition of JAK3 (unknown origin)
[24] = target: T3, Tyrosine-protein kinase JAK1; assay: Inhibition of JAK1 (unknown origin)
Homo sapiens [25] = species on record: Homo sapiens; assay: Selectivity index, ratio of IC50 for inhibition of JAK2 (unknown origin) to IC50 for inhibition of JAK1 (unknown origin)
[26] = target: T1, Tyrosine-protein kinase JAK2; assay: Inhibition of JAK2 (unknown origin)
Homo sapiens [27] = species on record: Homo sapiens; assay: Selectivity index, ratio of IC50 for inhibition of JAK3 (unknown origin) to IC50 for inhibition of JAK1 (unknown origin)
Homo sapiens [28] = species on record: Homo sapiens; assay: Selectivity index, ratio of IC50 for inhibition of TYK2 (unknown origin) to IC50 for inhibition of JAK1 (unknown origin)
[29] = target: T1, Tyrosine-protein kinase JAK2; assay: Inhibition of human JAK2 kinase domain incubated for 1 hrs in the presence of ATP by spectrophotometric analysis
[30] = target: T3, Tyrosine-protein kinase JAK1; assay: Inhibition of human JAK1 kinase domain incubated for 1 hrs in the presence of ATP by spectrophotometric analysis
Homo sapiens [31] = species on record: Homo sapiens; assay: Selectivity index, ratio of IC50 for inhibition of human TYK2 kinase domain to IC50 for inhibition of human JAK2 kinase domain incubated for 1 hrs in the presence of ATP by spectrophotometric analysis
Homo sapiens [32] = species on record: Homo sapiens; assay: Selectivity index, ratio of IC50 for inhibition of human JAK3 kinase domain to IC50 for inhibition of human JAK2 kinase domain incubated for 1 hrs in the presence of ATP by spectrophotometric analysis
[33] = target: T4, Non-receptor tyrosine-protein kinase TYK2; assay: Inhibition of human TYK2 kinase domain incubated for 1 hrs in the presence of ATP by spectrophotometric analysis
BaF3 [34] = assay: Antiproliferative activity against mouse BaF3 cells expressing TEL fused JAK2 incubated for 72 hrs by MTT assay; type: functional, cell-based; details: BaF3, 72 h
[35] = target: T2, Tyrosine-protein kinase JAK3; assay: Inhibition of human JAK3 kinase domain incubated for 1 hrs in the presence of ATP by spectrophotometric analysis
BaF3 [36] = assay: Antiproliferative activity against mouse BaF3 cells harboring JAK2 V617F mutation incubated for 72 hrs by MTT assay; type: functional, cell-based; details: BaF3, 72 h
Homo sapiens [37] = species on record: Homo sapiens; assay: Selectivity index, ratio of IC50 for inhibition of human JAK1 kinase domain to IC50 for inhibition of human JAK2 kinase domain incubated for 1 hrs in the presence of ATP by spectrophotometric analysis
[38] = target: T4, Non-receptor tyrosine-protein kinase TYK2; assay: Inhibition of recombinant human TYK2 (870 to 1187 residues)
[39] = target: T2, Tyrosine-protein kinase JAK3; assay: Inhibition of recombinant human JAK3 (781 to 1124 residues)

Chain of Proto-oncogene tyrosine-protein kinase receptor Ret (P07949 whole entry): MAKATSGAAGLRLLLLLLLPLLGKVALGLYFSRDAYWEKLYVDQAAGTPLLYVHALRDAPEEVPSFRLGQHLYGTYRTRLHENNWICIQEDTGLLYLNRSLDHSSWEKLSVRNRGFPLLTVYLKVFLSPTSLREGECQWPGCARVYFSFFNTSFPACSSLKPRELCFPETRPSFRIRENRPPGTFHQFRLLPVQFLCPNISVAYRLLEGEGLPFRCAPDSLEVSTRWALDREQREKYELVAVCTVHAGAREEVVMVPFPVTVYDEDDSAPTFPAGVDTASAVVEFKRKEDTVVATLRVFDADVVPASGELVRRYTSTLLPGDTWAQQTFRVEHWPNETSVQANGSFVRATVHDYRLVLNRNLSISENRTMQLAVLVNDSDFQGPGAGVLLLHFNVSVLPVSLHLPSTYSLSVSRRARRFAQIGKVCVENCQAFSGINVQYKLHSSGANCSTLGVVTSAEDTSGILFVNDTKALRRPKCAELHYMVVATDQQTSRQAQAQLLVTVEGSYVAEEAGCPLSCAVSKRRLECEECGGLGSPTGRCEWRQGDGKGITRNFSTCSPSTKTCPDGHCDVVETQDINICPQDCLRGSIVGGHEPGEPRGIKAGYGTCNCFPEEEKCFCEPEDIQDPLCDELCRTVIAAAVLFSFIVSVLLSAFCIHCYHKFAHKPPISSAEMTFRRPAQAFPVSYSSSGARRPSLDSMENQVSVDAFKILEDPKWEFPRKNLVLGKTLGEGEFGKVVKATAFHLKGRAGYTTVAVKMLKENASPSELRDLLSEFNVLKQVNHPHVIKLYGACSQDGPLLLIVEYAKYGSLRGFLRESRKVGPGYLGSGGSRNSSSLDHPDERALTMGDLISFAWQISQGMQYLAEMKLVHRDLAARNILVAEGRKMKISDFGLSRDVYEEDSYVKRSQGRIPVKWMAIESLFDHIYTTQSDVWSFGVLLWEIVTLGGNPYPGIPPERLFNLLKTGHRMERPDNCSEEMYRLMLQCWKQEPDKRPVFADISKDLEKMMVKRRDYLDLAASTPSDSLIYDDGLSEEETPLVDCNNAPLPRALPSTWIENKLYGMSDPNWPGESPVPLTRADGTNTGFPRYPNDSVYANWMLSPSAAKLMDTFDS

For `Cc1cnc(Nc2ccc(N3CCN(C)CC3)cc2)nc1Nc1cccc(S(=O)(=O)NC(C)(C)C)c1`, the IC50 [1] was 0.017 µM.

For `CC(C)(C)c1nc2c3ccc(F)cc3c3c(=O)[nH]ccc3c2[nH]1`, the IC50 (U-266) was 0.25 µM.

With `CN(C)C(=O)/C(C#N)=C/c1ccc(-c2nc3cnc4[nH]ccc4c3n2C2CCCCC2)o1` the IC50 [2] was 1 µM.

`Cc1cc(Nc2ccc3nc(C)n([C@@H]4CCc5ccc(F)cc54)c3c2)[nH]n1` gave an IC50 [3] of 0.002 µM and an IC50 [4] of 0.008 µM.

In the case of `O=C(Nc1c[nH]nc1-c1nc2ccc(CN3CCOCC3)cc2[nH]1)NC1CC1` [AT-9283], the inhibition in vivo at 15 mg/kg (HCT-116 [5]) is reported as 67% and the inhibition in vivo at 20 mg/kg (HCT-116 [6]) is reported as 76%.

`Cc1cc(Nc2nc(N[C@@H](C)c3ncc(F)cn3)ncc2Cl)n[nH]1` [AZD-1480] showed an IC50 [7] of 0.0004 µM and an IC50 [8] of 0.0013 µM.

With `CCS(=O)(=O)N1CC(CC#N)(n2cc(-c3ncnc4[nH]ccc34)cn2)C1` [BARICITINIB] the Activity (Rattus norvegicus [9]) was greater than 95% and the Activity (Rattus norvegicus [10]) was 50%.

Work on `CC[C@@](C)(Nc1ccnc(-c2c[nH]c3ncccc23)n1)C(=O)NCC(F)(F)F` [DECERNOTINIB] yielded an IC50 [11] of 0.05 µM, an IC50 [12] of 0.05 µM and an IC50 [13] of 0.05 µM. The IC50 (B cell) was 0.05 µM, the Ki [14] was 0.011 µM and the IC50 [15] was 0.05 µM.

`Cc1cnc(Nc2ccc(OCCN3CCCC3)cc2)nc1Nc1cccc(S(=O)(=O)NC(C)(C)C)c1` [FEDRATINIB] gave an IC50 (BaF3 [16]) of 0.27 µM, an IC50 (HEL) of 0.305 µM and an IC50 at 72 h [17] of 0.42 µM.

Compound `Cc1cc(Nc2cc(CN3CCOCC3)c3nc(C)c(Cc4ccc(Cl)cc4F)n3n2)n[nH]1` [GANDOTINIB] has an IC50 [18] of 1.18 µM, an IC50 (BaF3 [19]) of 1.31 µM and an IC50 [20] of 0.02 µM. For the same compound, the IC50 (BaF3 [21]) was 0.055 µM, the IC50 [22] was 0.044 µM and the IC50 [4] was 0.048 µM.

With `N#CCC1(n2cc(-c3ncnc4[nH]ccc34)cn2)CN(C2CCN(C(=O)c3ccnc(C(F)(F)F)c3F)CC2)C1` [ITACITINIB] the IC50 [23] was 2 µM, the IC50 [24] was 0.002 µM and the Ratio IC50 (Homo sapiens [25]) was greater than 20. It also gave an IC50 [26] of 0.063 µM, a Ratio IC50 (Homo sapiens [27]) greater than 100 and an IC50 [22] of 0.795 µM. The Ratio IC50 (Homo sapiens [28]) was greater than 100.

`C[C@H](Nc1cc(-c2cnn(C)c2)cc(Nc2cnccn2)n1)c1ccc(F)cc1` [NS-018] gave an IC50 [29] of 0.00072 µM, an IC50 [30] of 0.033 µM and a Ratio IC50 (Homo sapiens [31]) of 31. It also gave a Ratio IC50 (Homo sapiens [32]) of 54, an IC50 [33] of 0.022 µM and an IC50 (BaF3 [34]) of 0.011 µM. It also gave an IC50 [35] of 0.039 µM, an IC50 (BaF3 [36]) of 0.011 µM and a Ratio IC50 (Homo sapiens [37]) of 46.

Compound `CNS(=O)(=O)C[C@H]1CC[C@H](N(C)c2ncnc3[nH]ccc23)CC1` [OCLACITINIB] has an IC50 [38] of 0.084 µM and an IC50 [39] of 0.099 µM.

Work on `CC1(C)CN(C(=O)c2ccc(-c3cccc4nc(NC(=O)C5CC5)nn34)cc2)C1` [SOLCITINIB] yielded an IC50 [23] of 0.539 µM, an IC50 [24] of 0.0098 µM and a Ratio IC50 (Homo sapiens [25]) of 11. For the same compound, the IC50 [26] was 0.108 µM, the Ratio IC50 (Homo sapiens [27]) was 55 and the IC50 [22] was 0.225 µM. The Ratio IC50 (Homo sapiens [28]) was 23.
